Reference: patent publication US12077503B2, “Substituted cyclic amides and their use as herbicides” (FMC CORPORATION, priority 2015, dated 2024)
Read-outs that look alike come from different tables or passages of the source.

Legend:
Format in all cases: in vivo
[1] = tested on: pigweed (Amaranthus retroflexus); test: Test A preemergence; settings: Amaranthus retroflexus, pre-emergence, 240 h; for pest or weed control at 125 g/ha: 125 g ai/ha; for pest or weed control at 500 g/ha: 500 g ai/ha
rice (Oryra sativa) = test: Test B flooded paddy test; settings: Oryza sativa, Flood, 250 g ai/ha, read-out: Rice plant response rating
How it was run: (§1)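 Compound goes directly into floodwater once pots are flooded 3 cm above soil, targeting plants at two leaves; the water depth is then held for the test duration. Plants sit 13–15 d in a greenhouse and are rated visually, 100 denoting complete control.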

[2] = tested on: sedge, umbrella (small-flower umbrella sedge, Cyperus difformis); test: Test B flooded paddy test; settings: Cyperus difformis, Flood, 250 g ai/ha, read-out: Sedge, Umbrella plant response rating
How it was run: as §1

[3] = tested on: barnyardgrass (Echinochloa crus-galli); test: Test B flooded paddy test; settings: Echinochloa crus-galli, Flood, 250 g ai/ha, read-out: Barnyardgrass plant response rating
How it was run: as §1

[4] = tested on: ducksalad (Heteranthera limosa); test: Test B flooded paddy test; settings: Heteranthera limosa, Flood, 250 g ai/ha, read-out: Ducksalad plant response rating
How it was run: as §1

corn (Zea mays) = test: Test A postemergence; settings: Zea mays, post-emergence, 240 h, postemergence; for plant injury at 125 g/ha: 125 g ai/ha
How it was run: (§2)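 Visual injury scores from 0, no effect, to 100, complete control, were assigned versus untreated controls roughly 10 d after treatment in the greenhouse. Test chemicals, formulated with surfactant in a non-phytotoxic solvent, were applied to planted seeds as a preemergence soil spray or postemergence to one- to two-leaf plants 2 to 10 cm tall, in loam–sand soil.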

[5] = tested on: barnyardgrass (Echinochloa crus-galli); test: Test A postemergence; settings: Echinochloa crus-galli, post-emergence, 240 h, postemergence; for pest or weed control at 125 g/ha: 125 g ai/ha
How it was run: as §2

[6] = tested on: giant foxtail (Setaria faberii); test: Test A postemergence; settings: Setaria faberi, post-emergence, 240 h, postemergence; for pest or weed control at 125 g/ha: 125 g ai/ha
How it was run: as §2

[7] = tested on: ragweed (common ragweed, Ambrosia elatior); test: Test A postemergence; settings: Ambrosia artemisiifolia, post-emergence, 240 h, 125 g ai/ha, postemergence
How it was run: as §2

Kochia (Kochia scoparia) = test: Test A postemergence; settings: Bassia scoparia, post-emergence, 240 h, postemergence; for pest or weed control at 125 g/ha: 125 g ai/ha
How it was run: as §2

[8] = tested on: Galium (catchweed bedstraw, Galium aparine); test: Test A postemergence; settings: Galium, post-emergence, 240 h, postemergence; for pest or weed control at 125 g/ha: 125 g ai/ha
How it was run: as §2

[9] = tested on: pigweed (Amaranthus retroflexus); test: Test A postemergence; settings: Amaranthus retroflexus, post-emergence, 240 h, 125 g ai/ha, postemergence
How it was run: as §2

[10] = tested on: blackgrass (Alopecurus myosuroides); test: Test A postemergence; settings: Alopecurus myosuroides, post-emergence, 240 h, postemergence; for pest or weed control at 125 g/ha: 125 g ai/ha
How it was run: as §2

[11] = tested on: wheat (Triticum aestivum); test: Test A postemergence; settings: Triticum aestivum, post-emergence, 240 h, 125 g ai/ha, postemergence
How it was run: as §2

[12] = tested on: ryegrass, Italian (Italian ryegrass, Lolium multiflorum); test: Test A postemergence; settings: Lolium multiflorum, post-emergence, 240 h, 125 g ai/ha, postemergence
How it was run: as §2

[13] = preemergence, 0 to 100 scale where 0 is no effect and 100 is complete control, read-out: Pigweed plant response rating
[14] = Preemergence, visual injury vs untreated controls after approximately 10 d, read-out: Pigweed plant response rating (0 to 100 scale where 0 is no effect and 100 is complete control)
[15] = scale of 0 to 100 where 0 is no effect and 100 is complete control
[16] = visual injury rating after approximately 10 d, read-out: Corn plant response rating (0 to 100 scale, 0 no effect, 100 complete control)
[17] = visual injury rating after approximately 10 d, read-out: Barnyardgrass plant response rating (0 to 100 scale, 0 no effect, 100 complete control)
[18] = visual injury rating after approximately 10 d, read-out: Foxtail, Giant plant response rating (0 to 100 scale, 0 no effect, 100 complete control)
[19] = visual injury rating after approximately 10 d, read-out: Ragweed plant response rating (0 to 100 scale, 0 no effect, 100 complete control)
[20] = visual injury rating after approximately 10 d, read-out: Kochia plant response rating (0 to 100 scale, 0 no effect, 100 complete control)
[21] = visual injury rating after approximately 10 d, read-out: Galium plant response rating (0 to 100 scale, 0 no effect, 100 complete control)
[22] = visual injury rating after approximately 10 d, read-out: Pigweed plant response rating (0 to 100 scale, 0 no effect, 100 complete control)
[23] = visual injury rating after approximately 10 d, read-out: Blackgrass plant response rating (0 to 100 scale, 0 no effect, 100 complete control)
[24] = visual injury rating after approximately 10 d, read-out: Wheat plant response rating (0 to 100 scale, 0 no effect, 100 complete control)
[25] = visual injury rating after approximately 10 d, read-out: Ryegrass, Italian plant response rating (0 to 100 scale, 0 no effect, 100 complete control)
[26] = 0 to 100 scale where 0 is no effect and 100 is complete control

Cc1c(F)ccc([C@H]2CN(C)C(=O)[C@@H]2C(=O)Nc2cccc(F)c2F)c1F [Compound 834]
pest or weed control at 125 g/ha [1, 13]: 0% | pest or weed control at 500 g/ha [1, 14]: 30% | pest or weed control at 250 g/ha (rice (Oryra sativa); [15]): 0% | pest or weed control at 250 g/ha [2, 15]: 0% | pest or weed control at 250 g/ha [3, 15]: 60% | pest or weed control at 250 g/ha [4, 15]: 65% | plant injury at 125 g/ha (corn (Zea mays); [16]): 40% | pest or weed control at 125 g/ha [5, 17]: 90% | pest or weed control at 125 g/ha [6, 18]: 90% | pest or weed control at 125 g/ha [7, 19]: 0% | pest or weed control at 125 g/ha (Kochia (Kochia scoparia); [20]): 40% | pest or weed control at 125 g/ha [8, 21]: 60% | pest or weed control at 125 g/ha [9, 22]: 20% | pest or weed control at 125 g/ha [10, 23]: 60% | plant injury at 125 g/ha [11, 24]: 30% | pest or weed control at 125 g/ha [12, 25]: 60%

O=C1NC[C@H](c2ccc3c(c2)CCC3)[C@H]1C(=O)Nc1ccccc1F [Compound 1045]
pest or weed control at 125 g/ha ([1]; Preemergence, visual injury rating after approximately 10 d, read-out: Pigweed plant response rating (0 to 100 scale, 0 is no effect, 100 is complete control)): 0% | pest or weed control at 500 g/ha ([1]; preemergence, visual injury rating about 10 d after treatment, 0 to 100 scale (0 no effect, 100 complete control), read-out: Pigweed plant response rating): 0% | pest or weed control at 250 g/ha (rice (Oryra sativa); [26]): 0% | pest or weed control at 250 g/ha [2, 26]: 0% | pest or weed control at 250 g/ha [3, 26]: 75% | pest or weed control at 250 g/ha [4, 26]: 100% | plant injury at 125 g/ha (corn (Zea mays); visual injury on 0 to 100 scale (0 no effect, 100 complete control), approx. 10 d, read-out: Corn plant response rating): 20% | Corn plant response rating (crop injury, 0 = no effect, 100 = complete kill) at 500 g/ha (corn (Zea mays); 500 g ai/ha, visual injury, 0 to 100 scale (0 no effect, 100 complete control), approx. 10 d): 40% | pest or weed control at 125 g/ha ([5]; visual injury on 0 to 100 scale (0 no effect, 100 complete control), approx. 10 d, read-out: Barnyardgrass plant response rating): 90% | pest or weed control at 500 g/ha ([5]; 500 g ai/ha, visual injury, 0 to 100 scale (0 no effect, 100 complete control), approx. 10 d, read-out: Plant response rating, Barnyardgrass): 90% | pest or weed control at 125 g/ha ([6]; visual injury on 0 to 100 scale (0 no effect, 100 complete control), approx. 10 d, read-out: Foxtail, Giant plant response rating): 60% | pest or weed control at 500 g/ha ([6]; 500 g ai/ha, visual injury, 0 to 100 scale (0 no effect, 100 complete control), approx. 10 d, read-out: Plant response rating, Foxtail, Giant): 90% | pest or weed control at 125 g/ha ([7]; visual injury on 0 to 100 scale (0 no effect, 100 complete control), approx. 10 d, read-out: Ragweed plant response rating): 30% | pest or weed control at 125 g/ha (Kochia (Kochia scoparia); visual injury on 0 to 100 scale (0 no effect, 100 complete control), approx. 10 d, read-out: Kochia plant response rating): 0% | pest or weed control at 500 g/ha (Kochia (Kochia scoparia); 500 g ai/ha, visual injury, 0 to 100 scale (0 no effect, 100 complete control), approx. 10 d, read-out: Plant response rating, Kochia): 0% | pest or weed control at 125 g/ha ([8]; visual injury on 0 to 100 scale (0 no effect, 100 complete control), approx. 10 d, read-out: Galium plant response rating): 40% | pest or weed control at 500 g/ha ([8]; 500 g ai/ha, visual injury, 0 to 100 scale (0 no effect, 100 complete control), approx. 10 d, read-out: Plant response rating, Galium): 50% | pest or weed control at 125 g/ha ([9]; visual injury on 0 to 100 scale (0 no effect, 100 complete control), approx. 10 d, read-out: Pigweed plant response rating): 0% | pest or weed control at 125 g/ha ([10]; visual injury on 0 to 100 scale (0 no effect, 100 complete control), approx. 10 d, read-out: Blackgrass plant response rating): 40% | pest or weed control at 500 g/ha ([10]; 500 g ai/ha, visual injury, 0 to 100 scale (0 no effect, 100 complete control), approx. 10 d, read-out: Plant response rating, Blackgrass): 60% | plant injury at 125 g/ha ([11]; visual injury on 0 to 100 scale (0 no effect, 100 complete control), approx. 10 d, read-out: Wheat plant response rating): 20% | pest or weed control at 125 g/ha ([12]; visual injury on 0 to 100 scale (0 no effect, 100 complete control), approx. 10 d, read-out: Ryegrass, Italian plant response rating): 50%

CN1C[C@H](c2cccc(C3CC3)c2)[C@@H](C(=O)Nc2cccc(F)c2F)C1=O [Compound 816]
pest or weed control at 125 g/ha [1, 13]: 0% | pest or weed control at 500 g/ha [1, 14]: 60% | pest or weed control at 250 g/ha (rice (Oryra sativa); [15]): 30% | pest or weed control at 250 g/ha [2, 15]: 0% | pest or weed control at 250 g/ha [3, 15]: 55% | pest or weed control at 250 g/ha [4, 15]: 75% | plant injury at 125 g/ha (corn (Zea mays); [16]): 90% | pest or weed control at 125 g/ha [5, 17]: 90% | pest or weed control at 125 g/ha [6, 18]: 90% | pest or weed control at 125 g/ha [7, 19]: 0% | pest or weed control at 125 g/ha (Kochia (Kochia scoparia); [20]): 30% | pest or weed control at 125 g/ha [8, 21]: 60% | pest or weed control at 125 g/ha [9, 22]: 0% | pest or weed control at 125 g/ha [10, 23]: 60% | plant injury at 125 g/ha [11, 24]: 30% | pest or weed control at 125 g/ha [12, 25]: 60%
